Experimental data as given in US12241083B2, “Macs-based purification of stem cell-derived retinal pigment epithelium” (FUJIFILM Cellular Dynamics, Inc., priority 2015, dated 2025).
“Also recorded” adds a separate entry of the source.

Legend:
Format in all cases: cell-based, human
iPSC-RPE cells [1] = experiment: Immunostaining of the iPSC-RPE monolayer (beta catenin, pERM, ZO1, RPE65, p27); details: for Production of mature RPE cells: conclusion from beta catenin and RPE65 staining; for p27 staining: treated cells vs untreated (untreated: weak p27 in nucleus), higher p27 suggests cell cycle exit; for Beta catenin staining: treated iPSC-RPE cells vs untreated (untreated: beta catenin in cytoplasm)
Excerpt: The mature RPE cells were further developed into functional RPE cell monolayers that function as an intact RPE tissue by continued culture in the RPE-MM with additional small molecules such as primary cilium inducers like PGE2 or aphidicolin. Without being bound by theory, these primary cilium inducers suppress the canonical WNT pathway, induce cell cycle exit in the cells, and induce apical-basal polarization in the RPE monolayer. RPE maturity can alternatively be induced by canonical WNT pathway inhibitors such as IWP2 and endo-IWR1 that also induce cell cycle exit in RPE cells to promote RPE maturation. The cells were cultured in this medium for another 2-3 weeks to obtain mature and functional RPE cell monolayers. Thus, the presently disclosed methods provide mature RPE cells from pluripotent cells that can be consistently reproduced at a large scale for clinical applications.
(§1) For analysis of the mature RPE cells produced from treatment with PGE2, immunostaining of the RPE monolayer was performed to confirm the hexagonal architecture (FIGS. 4A-4C) of tight junctions by ZO1 staining as well as transmission electron microscopy of the iPSC-RPE cells (FIG. 4D).

[2] = tested on: iPSC-derived RPE population; experiment: Inclusion of MEK inhibitor in RDM and RPE-MM during RPE differentiation; details: 1 μM in RDM and in RPE-MM (approximately Days 42 through 50)
Procedure: With regard to the methods described in Examples 2 and 3, the inclusion of PD0325901 at a concentration of 1 μM in media for certain windows of time beginning on Day 2 post iPSC plating through the end of the differentiation process, including post-MACS culture, may improve both purity of the RPE population (meaning a decrease in contaminating cells) as well as maturity of the resulting RPE population.

[3] = tested on: iPSC-derived RPE cultures; experiment: Flow cytometry purity assay for RPE-specific markers
Procedure: The flow cytometry purity assay was performed to determine the percentage of RPE cells obtained by a sorting method of the present disclosure. An aliquot of the cell suspension collected from the MACS assay (2×10^6 cells in a 5 mL FACS tube per sample) was centrifuged at 400×g for 3 min. The cell pellet was resuspended in 1 mL of a stain (e.g., Live-Dead Red stain) and incubated in the dark at room temperature for 15 min. After incubation, 2 mL of wash buffer was added and the cells were centrifuged at 400×g for 3 min to remove any unbound stain. The cell pellet was resuspended in fixation buffer and incubated in the dark at room temperature for 15 min. After incubation, 2 mL of wash buffer were added and the cells were centrifuged at 400×g for 3 min and the supernatant was decanted. The cell pellet was resuspended in 2 mL of wash buffer to make a 1×10^6 cells/mL suspension and 200 μL of the cell suspension was transferred to a FACS tube. To each tube, 2 mL of perm buffer was added and cells were centrifuged at 400×g for 3 min. Primary antibodies for the RPE-specific markers were diluted in perm buffer and 100 μL diluted antibody solution was added to each tube. After incubation overnight at 4° C. in the dark, the cells were washed in 2 mL Penn Buffer two times. Secondary antibody solution was added to each of the tubes and cells were incubated at room temperature in the dark for 1-2 hours. […]
Next, it was tested whether an increase in the concentration of PGE2 from 50 μM to 100 μM in the RPE-MM+PGE2 medium would improve both purity of the RPE population (i.e., a decrease in contaminating cells) as well as maturity of the resulting RPE population. To determine the maturity and functionality of the 50 μM versus 100 μM PGE2 treated cultures, the barrier function in terms of transepithelial electrical resistance (TER) was measured (FIG. 7F) to compare the resistance of substances through the paracellular space as explained in Example 9. […]

iPSC-RPE cells [4] = experiment: Transmission electron microscopy of iPSC-RPE cells; details: PGE2-treated vs untreated iPSC-RPE cells
Procedure: as §1

iPSC-derived RPE cells = experiment: Barrier function: transepithelial electrical resistance (TER) and potential (TEP) of the RPE monolayer
Procedure: To measure the barrier function of the RPE cells generated by the present methods, transepithelial electrical potential (TEP) was measured the ion gradient across the monolayer generated by energy-driven ion pumps that regulate passage across the cells, and transepithelial electrical resistance (TER) measures resistance of substances through the paracellular space mainly through the fine structure of the tight junction structure (FIG. 7A).
Functionality of the mature RPE cells treated with IWP2 or endo-IWR1 was also characterized.
Next, it was tested whether an increase in the concentration of PGE2 from 50 μM to 100 μM in the RPE-MM+PGE2 medium would improve both purity of the RPE population (i.e., a decrease in contaminating cells) as well as maturity of the resulting RPE population. To determine the maturity and functionality of the 50 μM versus 100 μM PGE2 treated cultures, the barrier function in terms of transepithelial electrical resistance (TER) was measured (FIG. 7F) to compare the resistance of substances through the paracellular space as explained in Example 9. To determine the percentage of pure RPE cells obtained after treatment of the iPSC-derived RPE cultures with 50 μM or 100 μM in the RPE-MM+PGE2 medium, flow cytometry purity assay was performed for RPE-specific markers (FIG. 7G) as described in Example 6.

[5] = treated iPSC-RPE cells vs untreated (untreated: low in cytoplasm)
[6] = day 75, 100 μM vs 50 μM PGE2 from day 54 to day 75

Row | Structure (SMILES) | Production of mature RPE cells (iPSC-RPE cells [1]) | p27 staining (iPSC-RPE cells [1]) | Beta catenin staining (iPSC-RPE cells [1]) | RPE65 staining (iPSC-RPE cells [1]; [5]) | Purity and maturity of the RPE population [2] | ZO1 staining (iPSC-RPE cells [1]; treated and untreated iPSC-RPE cells) | pERM (Ezrin) staining (iPSC-RPE cells [1]; [5]) | Purity and maturity of the RPE population ([3]; PGE2 raised from 50 μM to 100 μM in RPE-MM+PGE2, judged by TER and flow cytometry) | Expression of Best 1 marker (late maturity RPE marker) [3, 6] | Percent expression of Pmel17, Tryp1 and Cralbp (RPE-specific markers) [3, 6] | Apical processes in transmission electron micrographs (iPSC-RPE cells [4]) | Functional response (TER) (iPSC-derived RPE cells; 100 μM vs 50 μM PGE2 in RPE-MM+PGE2 medium, Day 54 to Day 75) | TEP and TER measurements (functionality) (iPSC-derived RPE cells; treated RPE cells versus untreated RPE cells)
1 | Cc1ccc2nc(NC(=O)CSc3nc4c(c(=O)n3-c3ccccc3)SCC4)sc2c1 [IWP2, N-(6-Methyl-2-benzothiazolyl)-2-[(3,4,6,7-tetrahydro-4-oxo-3-phenylthieno[3,2-d]pyrimidin-2-yl)thio]-acetamide] | produces mature RPE cells | higher p27 expression in the nucleus | decreased beta catenin; also recorded: beta catenin on cell membrane | increased RPE65; also recorded: high in the cytoplasm |  |  |  |  |  |  |  |  | 
2 | [Cl-].[Li+] [LiCl] |  | weak p27 expression in the nucleus | beta catenin in the nucleus | no staining is seen |  |  |  |  |  |  |  |  | 
3 | O=C(NOC[C@H](O)CO)c1ccc(F)c(F)c1Nc1ccc(I)cc1F [PD0325901, N-[(2R)-2,3-Dihydroxypropoxy]-3,4-difluoro-2-[(2-fluoro-4-iodophenyl)amino]-benzamide] |  |  |  |  | improve both purity and maturity |  |  |  |  |  |  |  | 
4 | CCCCC[C@H](O)/C=C/[C@H]1[C@H](O)CC(=O)[C@@H]1C/C=C\CCCC(=O)O [PGE2, prostaglandin E2] | produces mature RPE cells |  | decreased beta catenin; also recorded: at the membrane | increased RPE65; also recorded: high in the cytoplasm of the treated cells |  | at the tight junctions in the plasma membrane | high in the cytoplasm of the treated cells | promotes both the purity and maturity | much higher | comparable expression | more extensive apical processes | progressive increase | increased functionality
